In patent US5821329A, “Cyclic peptide inhibitors of β1 and β2 integrin-mediated adhesion” (Tanabe Seiyaku Co., Ltd., priority 1996, dated 1998):

Tests used:
[1] = tested on: Jurkat cell adhesion to IL-1 stimulated endothelial cells (β1 integrins, α4 β1); experiment: Jurkat-Endothelial Cell Adhesion Assay; type: cell-based, human; conditions: Jurkat T cells on IL-1 stimulated HUVEC; no unit printed in the table (text gives IC50 and test concentrations in μM); read-out: IC50 for adhesion inhibition Jurk-EC
Description: Jurkat-Endothelial Cell Adhesion Assay […] This assay measured the adhesive interactions of a T-cell line, Jurkat, known to express high levels of α4 β1, to endothelial cell monolayers in the presence of representative test compounds of the present invention. The test compounds were added in increasing concentrations to T-cells and then the T-cell/compound mixture was added to IL-1 stimulated endothelial cell monolayers. The plates were incubated, washed and the percentage of attached cells was quantitated. […] Human umbilical vein endothelial cells (HUVEC) were purchased from Clonetics (San Diego, Calif.) at passage number 2. The cells were grown on 0.5% porcine skin gelatin pre-coated flasks (Sigma, St. Louis, Mo.) in EGM-UV media (Clonetics, San Diego, Calif.) supplemented with 10% fetal bovine serum. Cells were re-fed every 2-3 days, reaching confluence by day 4 to 6. […] The endothelial cells were not used following passage 7. The T-cell line Jurkat was obtained from American Type Culture Collection and cultured in RPMI media containing 10% fetal calf serum. […] Following this incubation, the monolayers were washed twice with PBS containing 1 mM calcium chloride and 1 mM magnesium chloride and the plates were read using a Millipore Cytofluor 2300 (Marlboro, Mass.). […] Monolayers were also fixed in 3% paraformaldehyde and evaluated microscopically to verify the adhesion. […]

[2] = tested on: JY cell adhesion to TNF stimulated endothelial cells (β2 integrins); experiment: JY-Endothelial Cell adhesion assay; type: cell-based, human; conditions: JY B cells + PMA on rTNF-stimulated HUVEC; no unit printed in the table (text gives IC50 and test concentrations in μM); read-out: IC50 for adhesion inhibition JY-EC
Description: The JY-Endothelial Cell Assay
The following assay established the activity of the present compounds in inhibiting cell adhesion through β2 integrins in a representative in vitro system.
The human B cell line, JY, was cultured in RPMI media containing 10% fetal calf serum at 37° C., in a humidified CO2 atmosphere. Endothelial cells were grown to confluency in 96-well micro-titer assay plates, as in the Jurkat-EC assay. Before the assay, the endothelial cells were stimulated with 50 U/ml rTNF for 18-24 hours at 37° C. JY cells were loaded with the fluorescent dye indicator BCECF-AM as follows: JY cells were washed twice with HBSS and cells were resuspended in HBSS at 5×10^6 cells/ml; BCECF-AM (Molecular Probes), stock concentration=1 mg/ml in DMSO, was added to the JY cells to a final concentration of 2 μg/ml; cells were incubated in the dark at 37° C. for 30-45 minutes; washed twice with HBSS and used in the assay. […]
The assay plates were then typically incubated for 30 min at 37° C. and washed four times with PBS containing Mg^2+ and Ca^2+ (room temp). 100 μl of PBS containing Mg^2+ and Ca^2+ were added to each well and the fluorescence from the adherent BCECF-labelled cells was analyzed using a fluorescence plate reader. […]

**Q.** Which IC50 [1] does the source give for “(1-FCA)-Arg-Cys*-(β-Asp)-(ThioP)-Cys*-Ala-Ala-Asp-(OFm) [Compound 35]” here?
**A.** 267 µM

**Q.** For “(9-FAc)-Arg-Cys*-(β-Asp)-(ThioP)-Cys*-(Abu)-Lys [Compound 65]”, which IC50 [2] is on record?
**A.** 353 µM

**Q.** For “(Ac)-Arg-Cys*-(β-Asp)-(ThioP)-Cys*-Ala-Asp-(OFm) [Compound 37]”, which IC50 [1] is on record?
**A.** 106 µM

**Q.** For “(Fmoc)-Arg-Cys*-(β-Asp)-(ThioP)-Cys* [Compound 22]”, which IC50 [2] is on record?
**A.** 52 µM
